Measurements from US7772267B2, “Bicyclic modulators of androgen receptor function” (Bristol-Myers Squibb Company, priority 2002, dated 2010).

Columns and labels:
[1] = tested on: endogenous glucocorticoid receptor (A549 cells); test: In vitro assay to measure GR-induced AP-1 transrepression (luciferase reporter in A549 cells); assay type: cell-based; conditions: at a concentration of ≦10 µM; typical value for the positive control
Description: The AP-1 assay is a cell-based luciferase reporter assay. A549 cells, which contain endogenous glucocorticoid receptor, were stably transfected with an AP-1 DNA binding site attached to the luciferase gene. Cells are then grown in RPMI+10% fetal calf serum (charcoal-treated)+Penicillin/Streptomycin with 0.5 mg/mL geneticin. Cells are plated the day before the assay at approximately 40000 cells/well. On assay day, the media is removed by aspiration and 20 μL assay buffer (RPMI without phenol red+10% FCS (charcoal-treated)+Pen/Strep) is added to each well. At this point either 20 μL assay buffer (control experiments), the compounds of the present invention (“test compounds”) (dissolved in DMSO and added at varying concentrations) or dexamethasome (100 nM in DMSO, positive control) are added to each well. The plates are then pre-incubated for 15 min at 37° C., followed by stimulation of the cells with 10 ng/mL PMA. The plates are then incubated for 7 h at 37° C. after which 40 μL luciferase substrate reagent is added to each well. Activity is measured by analysis in a luminometer as compared to control experiments treated with buffer or dexamethasome. […] The control, dexamethasone, at a concentration of ≦10 µM typically suppresses activity by 65%.

AR = molecular target: T1, AR (Rattus norvegicus, UniProt P15207)
T1 sequence (P15207 1-902): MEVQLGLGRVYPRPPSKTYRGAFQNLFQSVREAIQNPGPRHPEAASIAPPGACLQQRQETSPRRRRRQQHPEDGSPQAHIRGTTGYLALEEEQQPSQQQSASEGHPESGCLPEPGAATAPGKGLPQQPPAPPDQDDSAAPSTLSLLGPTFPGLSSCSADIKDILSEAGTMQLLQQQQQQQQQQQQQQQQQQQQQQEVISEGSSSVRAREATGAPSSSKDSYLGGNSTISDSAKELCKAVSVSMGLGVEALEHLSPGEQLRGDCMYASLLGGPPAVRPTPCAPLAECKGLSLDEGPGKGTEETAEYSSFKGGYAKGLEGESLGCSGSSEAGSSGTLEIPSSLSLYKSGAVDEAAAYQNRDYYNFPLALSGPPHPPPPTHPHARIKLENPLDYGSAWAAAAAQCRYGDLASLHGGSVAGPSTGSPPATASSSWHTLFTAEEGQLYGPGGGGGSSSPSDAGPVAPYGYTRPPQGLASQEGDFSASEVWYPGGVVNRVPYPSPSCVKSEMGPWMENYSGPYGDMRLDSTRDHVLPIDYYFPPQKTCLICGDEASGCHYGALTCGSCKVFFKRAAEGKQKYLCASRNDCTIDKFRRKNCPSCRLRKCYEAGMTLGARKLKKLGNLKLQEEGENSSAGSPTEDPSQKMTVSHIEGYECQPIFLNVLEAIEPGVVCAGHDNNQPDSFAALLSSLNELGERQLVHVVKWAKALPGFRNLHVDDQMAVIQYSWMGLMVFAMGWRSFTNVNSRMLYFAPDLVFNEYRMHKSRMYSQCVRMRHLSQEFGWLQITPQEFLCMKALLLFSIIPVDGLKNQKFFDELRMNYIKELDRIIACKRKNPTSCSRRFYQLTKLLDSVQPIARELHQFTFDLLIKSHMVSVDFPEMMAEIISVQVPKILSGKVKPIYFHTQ
Source text: The activity of compounds of the present invention as AR agonists was investigated in an immature male rat model, a recognized test of anabolic effects in muscle and sustaining effects in sex organs for a given compound, as described in L. G. Hershberger et al., Proc. Soc. […] Biol. Med., 83, 175 (1953); B. L. Beyler et al, “Methods for evaluating anabolic and catabolic agents in laboratory animals”, J. Amer. Med. Women's Ass., 23, 708 (1968); H. Fukuda et al., “Investigations of the levator ani muscle as an anabolic steroid assay”, Nago Dai. Yak. Ken. Nem. 14, 84 (1966) the disclosures of which are herein incorporated by reference.
The basis of this assay lies in the well-defined action of androgenic agents on the maintenance and growth of muscle tissues and sexual accessory organs in animals and man. […] J. Anat. […] I. Quantitative data” Boll.-Soc. Ital. Biol. Sper. […] II. Electron-microscopic observations” Boll.-Soc. Ital. Biol. Sper. 42, 1600 (1966); A. Boris et al., Steroids 15, 61 (1970). As described above, the effects of androgens on maintenance of male sexual accessory organs, such as the prostate and seminal vesicles, is well described. Castration results in rapid involution and atrophy of the prostate and seminal vesicles. This effect can be reversed by exogenous addition of androgens. […]

SMILES: C[C@@H]1C[C@H]2[C@@H]3CCC4=CC(=O)C=C[C@]4(C)[C@@]3(F)[C@@H](O)C[C@]2(C)[C@@]1(O)C(=O)CO [dexamethasone]
- suppression of activity (% inhibition of the reporter system vs buffer control with 10 ng/mL PMA alone) [1]: 65%

SMILES: CCC(=O)O[C@H]1CC[C@H]2[C@@H]3CCC4=CC(=O)CC[C@]4(C)[C@H]3CC[C@]12C [TP, Testosterone Propionate]
- EC50 (increase in organ weight) (AR; castrated rats, organ weight increase): ~0.03 mg
- potency relative to free T (AR; higher potency than free T): 10-30 fold

SMILES: Cc1c(N2C[C@@H]3[C@@H](O)CCN3C2=O)ccc(C#N)c1Cl
- melting point: 148 to 149 °C
